From PubChem BioAssay (NCI)
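All cell lines were grown in 96-well plates and treated with compound for 48 hours. GI50 marks 50% less growth. TGI: total growth inhibition.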

What was measured:
Test in all cases: DTP human tumour cell line panel, 48 h
A549 NSCLC = system: A549 NSCLC
HOP-62 NSCLC = system: HOP-62 NSCLC
IGROV1 ovarian = system: IGROV1 ovarian
KM12 colon = system: KM12 colon
M14 melanoma = system: M14 melanoma
NCI-H522 lung = system: NCI-H522 lung
RPMI-8226 leukemia = system: RPMI-8226 leukemia
SK-OV-3 ovarian = system: SK-OV-3 ovarian
UACC-62 melanoma = system: UACC-62 melanoma
HS 578T breast = system: HS 578T breast

Row | SMILES | TGI (A549 NSCLC) | TGI (HOP-62 NSCLC) | TGI (IGROV1 ovarian) | TGI (KM12 colon) | TGI (M14 melanoma) | TGI (NCI-H522 lung) | TGI (RPMI-8226 leukemia) | TGI (SK-OV-3 ovarian) | TGI (UACC-62 melanoma) | GI50 (A549 NSCLC) | GI50 (HOP-62 NSCLC) | GI50 (HS 578T breast) | TGI (HS 578T breast) | GI50 (KM12 colon) | GI50 (M14 melanoma) | GI50 (RPMI-8226 leukemia) | GI50 (SK-OV-3 ovarian) | GI50 (UACC-62 melanoma) | GI50 (IGROV1 ovarian) | GI50 (NCI-H522 lung)
1 | C[n+]1ccc2[nH]c3ccccc3c2c1 | > 100 µM | > 100 µM | > 100 µM | > 100 µM | > 100 µM | > 100 µM | > 100 µM | > 100 µM | > 100 µM | – | – | – | – | – | – | – | – | – | – | –
2 | Cn1c(=O)c2[nH]cnc2n(CC(=O)O)c1=O | > 100 µM | > 100 µM | > 100 µM | > 100 µM | > 100 µM | > 100 µM | > 100 µM | > 100 µM | > 100 µM | – | – | – | – | – | – | – | – | – | – | –
3 | NCCCn1c2c(c3ccc([N+](=O)[O-])cc3c1=O)C(=O)c1cc(Cl)ccc1-2 | 0.116 µM | 0.123 µM | – | 0.174 µM | 0.0318 µM | – | 0.0367 µM | 0.197 µM | 0.0696 µM | < 0.01 µM | < 0.01 µM | 1.11 µM | 2.8 µM | < 0.0283 µM | < 0.01 µM | < 0.01 µM | < 0.01 µM | < 0.01 µM | – | –
4 | O=C(Nc1ccccc1)OCc1nc2c([nH]1)C(=O)C=CC2=O | 31.9 µM | > 100 µM | 30.7 µM | 29 µM | 29.8 µM | – | 51.1 µM | 29.3 µM | 36.9 µM | – | – | – | – | – | – | – | – | – | – | –
5 | COc1cc(CCC(=O)NS(=O)(=O)c2ccccc2)cc(OC)c1OC | > 100 µM | > 100 µM | > 100 µM | > 100 µM | > 100 µM | > 100 µM | > 100 µM | > 100 µM | > 100 µM | – | – | – | – | – | – | – | – | – | – | –
6 | ClC1=C(Cl)C(Cl)=C(Cl)C1=Cc1ccc(Cl)cc1Cl | 4.52 µM | 3.57 µM | 3.19 µM | 2.08 µM | 0.635 µM | – | 1.99 µM | 5.98 µM | 0.495 µM | 1.7 µM | 0.396 µM | 0.522 µM | > 100 µM | 0.686 µM | 0.234 µM | 0.355 µM | 1.74 µM | 0.192 µM | 0.404 µM | –
7 | C=C(C)C(=O)N1c2ccc(OC)cc2CC1C(=O)OCC (stereo not drawn) | > 100 µM | > 100 µM | > 100 µM | > 100 µM | > 100 µM | > 100 µM | – | > 100 µM | > 100 µM | – | – | – | > 100 µM | – | – | – | – | – | – | –
8 | C=C(C)C1CCC2(CO)C(O)CC3(C)C(CCC4C5(C)CCC(O)C(C)(C)C5CCC43C)C12 (stereo not drawn) | 32.6 µM | 27 µM | 30 µM | > 100 µM | > 100 µM | 42.4 µM | – | – | – | – | – | – | 90.7 µM | – | – | – | – | – | – | –
9 | C/C(CC(=O)Nc1ccc(NC(=O)/C(C)=N/NS(=O)(=O)c2ccc(C)cc2)cc1)=N\NS(=O)(=O)c1ccc(C)cc1 | > 100 µM | > 100 µM | > 100 µM | > 100 µM | > 100 µM | – | > 100 µM | > 100 µM | > 100 µM | – | – | – | – | – | – | – | – | – | – | –
10 | NC(=O)C12CCC1C1CCCCC12N1CCOCC1 (stereo not drawn) | > 100 µM | > 100 µM | > 100 µM | > 100 µM | > 100 µM | > 100 µM | > 100 µM | > 100 µM | > 100 µM | – | – | – | – | – | – | – | – | – | – | –
11 | CC(=O)NNc1nc(C)c(C(/C=C/c2ccc(Cl)cc2)=N/NC(=S)NN)s1 | > 100 µM | > 100 µM | > 100 µM | > 100 µM | > 100 µM | > 100 µM | > 100 µM | > 100 µM | > 100 µM | – | – | – | – | – | – | – | – | – | – | –
12 | COc1cc(C(=C2SCCS2)c2nccc3cc(OC)c(OC)cc23)c([N+](=O)[O-])cc1OC | > 100 µM | > 100 µM | > 100 µM | > 100 µM | > 100 µM | > 100 µM | > 100 µM | > 100 µM | > 100 µM | – | – | – | – | – | – | – | – | – | – | –
13 | N#CNc1nc(C(=O)Nc2ccc(Cl)cc2)cc(-c2ccccc2)n1 | > 100 µM | > 100 µM | > 100 µM | > 100 µM | > 100 µM | – | > 100 µM | – | > 100 µM | – | – | – | – | – | – | – | – | – | – | –
14 | CCc1ccccc1NC(=O)C1=C(C)NC(C)=C(C(=O)Nc2ccccc2CC)C1c1ccc(NC(C)=O)cc1 | > 100 µM | 92.8 µM | > 100 µM | > 100 µM | > 100 µM | 71.1 µM | 48.9 µM | > 100 µM | – | – | – | – | – | – | – | – | – | – | – | –
15 | CC1(C)CC(O)CCCCCCOc2c(CN)cccc2NC(=O)c2nc(cnc2N)-c2ccc(cc2)S1(=O)=O (stereo not drawn) | – | 3.75 µM | 1.48 µM | 2.59 µM | 2.58 µM | 2.96 µM | – | 15.8 µM | 3.3 µM | – | 1.41 µM | – | – | 0.843 µM | 0.0927 µM | – | 2.22 µM | 1.67 µM | 0.148 µM | 1.22 µM
16 | CC(=O)[CH-]C(=O)c1ccccc1.CC(=O)[CH-]C(=O)c1ccccc1.CC[O-].O=C1C=C([O-])C(=O)c2ccccc21.[Ti+4] | > 100 µM | > 100 µM | > 100 µM | > 100 µM | > 100 µM | 69.3 µM | 85.8 µM | > 100 µM | > 100 µM | 46.3 µM | 58.2 µM | – | – | 32.2 µM | 18 µM | 16.9 µM | 70.8 µM | 38.8 µM | > 100 µM | 10.6 µM
17 | CN(/C(=N\O)c1ccccc1)c1ccccc1 | > 100 µM | 58.8 µM | – | > 100 µM | 57.5 µM | 40.3 µM | – | – | – | – | – | – | – | – | – | – | – | – | – | –
18 | CN(Cc1ccccc1)c1nc(=[N+](C)C)ss1 | > 100 µM | > 100 µM | > 100 µM | > 100 µM | > 100 µM | > 100 µM | > 100 µM | > 100 µM | > 100 µM | – | – | – | – | – | – | – | – | – | – | –
19 | O/N=C1/C(=C/c2ccccc2)CCCC1C(NO)c1ccccc1 (stereo not drawn) | > 100 µM | – | > 100 µM | > 100 µM | > 100 µM | > 100 µM | > 100 µM | > 100 µM | > 100 µM | – | – | – | – | – | – | – | – | – | – | –
20 | COC(=O)C(C(=O)C(=O)Nc1ccc(C)cc1C)c1nc2ccc([N+](=O)[O-])cc2[nH]c1=O (stereo not drawn) | > 100 µM | > 100 µM | > 100 µM | > 100 µM | > 100 µM | > 100 µM | > 100 µM | > 100 µM | > 100 µM | – | – | – | – | – | – | – | – | – | – | –
